Laboratory results taken from article PMC9921063 (Molecules, 2023).
≈ marks a conversion by molar mass, not a printed value.

Tests used:
L. major promastigotes = test: Antileishmanial assay, promastigotes; format: cell-based, Leishmania major; conditions: mean ± S.D.; for IC50: Leishmania major
Protocol: (§1) This assay was carried out according to the methods mentioned in our previously published article. L. major promastigotes were isolated locally from an indoor patient in 2016, liquid nitrogen was used for the preservation of the parasites, and BALB/c mice were used for the maintenance of the parasites and production of L. major amastigotes. Phenol red-free RPMI 1640 medium (Invitrogen, USA) with 10% FBS was used for the culture and in vitro evaluation, while amphotericin B (AmB) was used as reference drug.

[1] = test system: hepatocellular carcinoma cell lines (HepG-2); test: In vitro anticancer proliferation (cytotoxicity) assay; format: cell-based, human; conditions: hepatocellular carcinoma cells, mean ± S.D.; for IC50: Homo sapiens, HepG2
Protocol: (§2) The selected compound was investigated for its cytotoxic properties against HCT-116 and HepG-2 (cancer cell lines of ATCC, Rockville, MD, USA). Vinblastine was applied as reference drug. The assay was conducted according to the methods described by Mossman and our recently published data.

[2] = test system: colon carcinoma cells (HCT-116); test: as above; format: cell-based, human; conditions: for IC50: Homo sapiens, HCT-116, mean ± S.D.; for IC50 HCT-116: mean ± S.D.
Protocol: as §2

L. major amastigotes = test: Antileishmanial assay, amastigotes; format: cell-based, Leishmania major; conditions: mean ± S.D.; for IC50: Leishmania major, read-out: Amastigote IC50
Protocol: as §1

[3] = test system: T. gondii tachyzoites RH strain; test: Antitoxoplasmal assay; format: cell-based, Toxoplasma gondii; conditions: mean ± S.D.; for IC50: Toxoplasma gondii
Protocol: This assay was carried out according to the methods mentioned in our previously published article. Vero cells line (ATCC® CCL81™, USA) were used for the serial passage and cultivation of T. gondii tachyzoites RH strain, complete RPMI 1640 medium with heat-inactivated 10% FBS was used for the culture and in vitro evaluation, while atovaquone (ATO) was used as reference drug. The results were expressed in IC50 of three independent readings, followed by the selectivity index (SI) calculation by dividing CC50 over IC50 of the same compound [56].

[4] = DPPH radical scavenging activity; conditions: antiradical scavenging; mean ± S.D.
Protocol: (§3) Three methods were used for the assessing antioxidant properties of the selected compounds, which are 2.2-diphenyl-1-picrylhydrazyl (DPPH), 2.2’-azino-bis (3-ethylbenzothiazoline-6-sulphonic acid) (ABTS) radicals scavenging, and β-carotene linoleic acid bleaching assay. […] The control compound was butylated hydroxytoluene (BHT), which is a potent antioxidant.
Briefly, various amounts of produced compounds were diluted with ultrapure water after being dissolved in dimethylsulfoxide (DMSO)/water (1/9; v/v) (1, 0.5, 0.250, 0.125, 0.0625, 0.03125 mg mL^−1). The samples were then combined with […] of a 4% (w/v) solution of the DPPH radical in ethanol. The combination was incubated for 30 min. at room temperature and in the dark. Spectrophotometric analysis was used to calculate the scavenging capacity by comparing the decrease in absorbance at 517 nm to a blank.
(§4) All the assays used for antioxidant determination (DPPH, ABTS, and β-carotene bleaching assay) were performed simultaneously three times in the same conditions. The results obtained in µM mL^−1 average of the three experiments.

[5] = In vitro cytotoxicity assay, MTT; format: cell-based; conditions: African green monkey, Vero cells, mean ± S.D., read-out: CC50 Toxicity (Vero Cell)
Protocol: (§5) MTT colorimetric technique was carried out for cytotoxicity evaluation according to the methods mentioned in our previously published article. An amount of 96 well plates with complete were used for the culture of the cells. FLUOstar OPTIMA spectrophotometer was applied for colorimetric analysis and in vitro evaluation.

electric eel AChE = electric eel AChE (Electrophorus electricus, UniProt O42275); test: biochemical; format: biochemical; conditions: mean ± S.D.; for IC50: read-out: AChEI IC50 (converted)
Protocol: According to the Ellman et al. published spectrophotometric method of electric eel AChE [47], AChEI activity was measured. Acetylthiocholine iodide (ATCI) was used as the reaction’s substrate, and the antiacetylcholinesterase activity was measured using 5,5’-Dithiobis-(2-nitrobenzoic acid) (DTNB).

[6] = β-Carotene linoleic acid bleaching assay; conditions: β-carotene bleaching test; mean ± S.D.
Protocol: as §3
β-Carotene bleaching test was conducted following the method described by Pratt’s.
as §4

[7] = ABTS radical scavenging assay; conditions: antiradical scavenging; mean ± S.D.
Protocol: as §3
ABTS radical scavenging activity was conducted by referring to the method of Re et al..
as §4

TyrE = TyrE (Agaricus bisporus, UniProt C7FF04); format: biochemical
Vero cell = test: In vitro cytotoxicity assay, MTT; format: cell-based; conditions: mean ± S.D.
Protocol: as §5

C. albicans [8] = test: Minimum inhibitory concentration (MIC); format: cell-based
Protocol: (§6) Microorganisms, media and growth conditions, agar well diffusion method for inhibition zone determination (IZ) and minimum inhibitory concentration (MIC) were performed according to the literature work.
(§7) The synthesized compounds were examined in vitro for their antimicrobial activity against Six standard microorganisms of ATCC, two Gram positive bacteria S. aureus and Listeria monocytogenes, three Gram negative bacteria Esherichia coli, Pseudomonas aeruginosa and Salmonella typhimurium and the fungus C. albicans. Bacteria were cultured in Luria-Bertani (LB) medium, while Sabouraud agar was used for culturing C. albicans and the assay conducted according to our previous techniques. The results were the average of 3 readings.

S. aureus [9] = test: Minimum inhibitory concentration (MIC); format: cell-based
Protocol: as §6, §7

S. typhimurium [10] = test: Minimum inhibitory concentration (MIC); format: cell-based, Salmonella typhimurium
Protocol: as §6, §7

L. monocytogenes [11] = test: Minimum inhibitory concentration (MIC); format: cell-based, Listeria monocytogenes
Protocol: as §6, §7

[12] = test system: all examined microorganisms; test: Antimicrobial activity, summary over all examined microorganisms; format: cell-based; conditions: for Inhibition of the examined indicator organisms: all of the examined indicator organisms
Protocol: as §6, §7

C. albicans [13] = test: Agar well diffusion, inhibition zone; format: cell-based
Protocol: as §6, §7

S. aureus [14] = test: Agar well diffusion, inhibition zone; format: cell-based
Protocol: as §6, §7

L. monocytogenes [15] = test: Agar well diffusion, inhibition zone; format: cell-based, Listeria monocytogenes
Protocol: as §6, §7

S. typhimurium [16] = test: Agar well diffusion, inhibition zone; format: cell-based, Salmonella typhimurium
Protocol: as §6, §7

E. coli = test: Agar well diffusion, inhibition zone; format: cell-based, Esherichia coli
Protocol: as §6, §7

P. aeruginosa = test: Agar well diffusion, inhibition zone; format: cell-based, Pseudomonas aeruginosa
Protocol: as §6, §7

[17] = against all examined microorganisms

Chain of TyrE (C7FF04 1-392): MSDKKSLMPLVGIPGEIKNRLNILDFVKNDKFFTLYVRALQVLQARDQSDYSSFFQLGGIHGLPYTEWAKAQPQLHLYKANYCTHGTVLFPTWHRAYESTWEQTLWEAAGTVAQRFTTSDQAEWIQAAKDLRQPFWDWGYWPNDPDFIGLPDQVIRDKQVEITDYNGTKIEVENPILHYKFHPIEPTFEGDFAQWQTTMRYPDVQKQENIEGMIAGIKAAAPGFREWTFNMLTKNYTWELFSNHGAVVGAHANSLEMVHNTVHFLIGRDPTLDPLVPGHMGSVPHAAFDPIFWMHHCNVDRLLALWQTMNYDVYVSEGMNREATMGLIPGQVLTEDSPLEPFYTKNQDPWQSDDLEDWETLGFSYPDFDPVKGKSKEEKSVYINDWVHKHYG
Chain of electric eel AChE (O42275 24-633): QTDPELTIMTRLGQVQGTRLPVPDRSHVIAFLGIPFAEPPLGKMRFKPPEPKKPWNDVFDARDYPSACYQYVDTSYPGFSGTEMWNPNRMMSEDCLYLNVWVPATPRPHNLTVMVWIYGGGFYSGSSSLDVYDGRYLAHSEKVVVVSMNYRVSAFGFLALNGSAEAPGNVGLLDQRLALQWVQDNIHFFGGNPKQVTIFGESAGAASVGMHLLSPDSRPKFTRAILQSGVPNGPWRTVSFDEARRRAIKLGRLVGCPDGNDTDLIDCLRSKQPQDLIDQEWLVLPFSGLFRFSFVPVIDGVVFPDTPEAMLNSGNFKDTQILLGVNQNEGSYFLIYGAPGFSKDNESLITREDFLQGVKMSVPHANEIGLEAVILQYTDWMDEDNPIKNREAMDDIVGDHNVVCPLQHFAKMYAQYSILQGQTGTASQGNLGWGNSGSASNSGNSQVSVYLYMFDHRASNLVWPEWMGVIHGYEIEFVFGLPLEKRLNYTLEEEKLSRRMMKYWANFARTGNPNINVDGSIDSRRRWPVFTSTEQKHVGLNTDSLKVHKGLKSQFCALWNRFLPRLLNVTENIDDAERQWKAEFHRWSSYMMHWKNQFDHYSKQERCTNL

Compound | IC50 [1] | IC50 [2] | DPPH IC50 [4] | β-Carotene IC50 [6] | ABTS IC50 [7] | Promastigotes IC50 (L. major promastigotes) | IC50 HepG-2 [1] | IC50 HCT-116 [2] | Amastigote IC50 (L. major amastigotes) | TyrEI IC50 (TyrE) | Toxoplasma IC50 [3] | CC50 Toxicity (Vero Cell) (Vero cell) | also measured
Cc1cc(C)c(Cn2c[n+](Cc3c(C)cc(C)cc3C)c3cc(C)c(C)cc32)c(C)c1.[Br-] [Compound 2b, 5,6-dimethyl-1,3-bis(2,4,6-trimethylbenzyl)-1H-benzo[d]imidazol-3-ium bromide] | 17.4 ± 2.7 µg/mL | 13.6 ± 2 µg/mL | 63.45 ± 10.1 µM mL^−1 | 325.55 ± 48.7 µM mL^−1 | 38.14 ± 4.9 µM mL^−1 |  |  |  |  |  |  |  | IC50 (L. major promastigotes): 2.2 ± 0.3 µg/mL; IC50 (L. major amastigotes): 0.3 ± 0.04 µg/mL; IC50 [3]: 3.7 ± 0.5 µg/mL; CC50 [5]: 1.1 ± 0.1 µg/mL; IC50 (electric eel AChE): 27.3 µM
Cc1cc(C(C)(C)C)c(O)c(C(C)(C)C)c1 [BHT, butylated hydroxytoluene, reference compound] |  |  | 31.55 ± 4.8 µM mL^−1 | 89.55 ± 13.3 µM mL^−1 | 17.41 ± 2.9 µM mL^−1 |  |  |  |  |  |  |  | 
5,6-dimethyl-1,3-bis(2,3,4,5,6-pentamethylbenzyl)-1H-benzo[d]imidazol-3-ium bromide [Compound 2a] |  |  | 58.27 ± 7.4 µM mL^−1 | 395.75 ± 51.6 µM mL^−1 | 39.12 ± 5.9 µM mL^−1 | 3.2 ± 0.5 µM mL^−1 | 11.75 ± 2.1 µM mL^−1 | 7.76 ± 1.1 µM mL^−1 | 1.1 ± 0.1 µM mL^−1 | 45.05 ± 7.3 µM mL^−1 | 8.4 ± 1.0 µM mL^−1 | 1.2 ± 0.2 µM mL^−1 | AChEI IC50 (electric eel AChE): 18.38 ± 2.7 µM mL^−1
5,6-Dimethyl-[1,3-(2,3,4,5,6-pentamethyl-2,4,6-trimethyl)-benzimidazol-2-ylidene](p-cymene) ruthenium(II) chloride [Compound 3a] |  |  | 61.25 ± 10.3 µM mL^−1 | 401.12 ± 66.5 µM mL^−1 | 41.78 ± 7.3 µM mL^−1 | 0.45 ± 0.07 µM mL^−1 | 9.21 ± 1.3 µM mL^−1 | 4.12 ± 0.6 µM mL^−1 | 2.4 ± 0.4 µM mL^−1 | 50.75 ± 8.3 µM mL^−1 | 1.3 ± 0.2 µM mL^−1 | 1.2 ± 0.3 µM mL^−1 | 
5,6-dimethyl-1,3-(3,5)-dimethyl-4-methylbenzyl)-2,3-dihydro-1H-benzo[d]imidazolium bromide [Compound 2d] |  |  | 74.25 ± 11.6 µM mL^−1 | 360.90 ± 40.8 µM mL^−1 | 55.21 ± 7.4 µM mL^−1 | 1.9 ± 0.3 µM mL^−1 | 26.82 ± 3.6 µM mL^−1 | 16.04 ± 2.9 µM mL^−1 | 1.4 ± 0.2 µM mL^−1 | 43.25 ± 6.8 µM mL^−1 | 3.8 ± 0.5 µM mL^−1 | 1.7 ± 0.3 µM mL^−1 | AChEI IC50 (electric eel AChE): 22.27 ± 3.1 µM mL^−1
5,6-Dimethyl-[1,3-(2,3,4,5,6-pentamethyl-2,4,6-trimethyl)-benzimidazol-2-ylidene](p-cymene) ruthenium(II) chloride [Compound 3b] |  |  | 43.05 ± 5.7 µM mL^−1 | 225.45 ± 31.5 µM mL^−1 | 32.05 ± 4.2 µM mL^−1 | 0.74 ± 0.08 µM mL^−1 | 31.40 ± 4.8 µM mL^−1 | 19.45 ± 3.2 µM mL^−1 | 1.1 ± 0.2 µM mL^−1 | 19.88 ± 2.4 µM mL^−1 | 1.4 ± 0.2 µM mL^−1 | 1.3 ± 0.3 µM mL^−1 | MIC (C. albicans [8]): 1.25 µM mL^−1; MIC (S. aureus [9]): 3.9 µM mL^−1; MIC (S. typhimurium [10]): 3.9 µM mL^−1; MIC (L. monocytogenes [11]): 15.6 µM mL^−1; Inhibition of the examined indicator organisms [12]: inhibited
5,6-Dimethyl-[1,3-(3,5)dimethyl-4-methyl)-benzimidazol-2-ylidene](p-cymene) ruthenium(II) chloride [Compound 3d] |  |  | 32.18 ± 5.4 µM mL^−1 | 92.25 ± 11.9 µM mL^−1 | 18.17 ± 3.0 µM mL^−1 | 0.32 ± 0.04 µM mL^−1 | 12.75 ± 1.7 µM mL^−1 | 8.45 ± 0.9 µM mL^−1 | 1.4 ± 0.3 µM mL^−1 | 24.95 ± 3.7 µM mL^−1 | 1.4 ± 0.1 µM mL^−1 | 1.8 ± 0.2 µM mL^−1 | Inhibition zone (C. albicans [13]): 27 mm; Inhibition zone (S. aureus [14]): 26 mm; MIC (C. albicans [8]): 1.25 µM mL^−1; MIC (S. aureus [9]): 1.95 µM mL^−1; Inhibition zone (L. monocytogenes [15]): 28 mm; Inhibition zone (S. typhimurium [16]): 27 mm; MIC (S. typhimurium [10]): 1.95 µM mL^−1; Inhibition zone (E. coli): 29 mm; MIC (L. monocytogenes [11]): 3.9 µM mL^−1; IZ (inhibition zone) [12, 17]: over 25 mm; MIC (minimum inhibitory concentration) [12, 17]: < 4 µM; Inhibition of the examined indicator organisms [12]: inhibited; Inhibition zone (P. aeruginosa): 27 mm
5,6-Dimethyl-[1,3-(4-(tert-butyl)-4-methyl)-benzimidazol-2-ylidene] (p-cymene) ruthenium (II) chloride [Compound 3c] |  |  | 65.49 ± 11.2 µM mL^−1 | 374.87 ± 55.7 µM mL^−1 | 45.04 ± 6.6 µM mL^−1 | 0.37 ± 0.06 µM mL^−1 | 12.73 ± 1.8 µM mL^−1 | 8.45 ± 1.2 µM mL^−1 | 4.2 ± 0.8 µM mL^−1 | 38.17 ± 5.5 µM mL^−1 | 1.5 ± 0.3 µM mL^−1 | 1.9 ± 0.4 µM mL^−1 | 
Cc1ccc(C[n+]2cn(Cc3ccc(C(C)(C)C)cc3)c3cc(C)c(C)cc32)cc1 [Compound 2c, 5,6-dimethyl-1,3-((4-(tert-butyl)-4-methyl-benzyl)-1H-benzo[d]imidazol-3-ium bromide] | 20.6 ± 3.3 µg/mL | 15.4 ± 2.6 µg/mL | 70.23 ± 12.0 µM mL^−1 | 348.70 ± 52.1 µM mL^−1 | 51.27 ± 8.6 µM mL^−1 |  |  |  |  |  |  |  | IC50 (L. major promastigotes): 5.8 ± 0.9 µg/mL; IC50 (L. major amastigotes): 1.7 ± 0.2 µg/mL; IC50 [3]: 2.1 ± 0.3 µg/mL; CC50 [5]: 2.9 ± 0.4 µg/mL; IC50 (electric eel AChE): 51.6 µM
CC[C@]1(O)C[C@@H]2CN(CCc3c([nH]c4ccccc34)[C@@](C(=O)OC)(c3cc4c(cc3OC)N(C)[C@H]3[C@@](O)(C(=O)OC)[C@H](OC(C)=O)[C@]5(CC)C=CCN6CC[C@]43[C@@H]65)C2)C1 [vinblastine, reference compound] | 6.05 µg/mL (≈ 7.46 µM) | 3.83 µg/mL (≈ 4.72 µM) |  |  |  |  |  |  |  |  |  |  | 
